# Values quoted from earlier work, collected in patent US20080286377A1 (priority 2001, published 2008).
# Experiments:
# [1] = system: osteolysis associated with wear debris; conditions: systemic administration
# bone resorption = conditions: mild to moderate Paget's disease; administration for 10 days (intravenous) to 6 months (oral); SAP activity and UHP excretion as indicators
# [2] = activity assays
compound,measurement,setting,value
NCCCC(O)(P(=O)(O)O)P(=O)(O)O [alendronate],osteolysis associated with wear debris,[1],inhibited osteolysis
same,"prevention of resorption, 10-second contact",alveolar bone resorption; 10-second contact of soaked pellet to alveolar bone,ineffective in preventing resorption
same,bone resorption after local administration,"alveolar bone resorption; drug-soaked pellet against alveolar bone for 2 hours, monitored 21 days later",significantly reduced bone resorption
same,"prevention of resorption, systemic administration",alveolar bone resorption; systemic administration,effective
NCCC(O)(P(=O)(O)O)P(=O)(O)O [pamidronate disodium],"biochemical remission of bone resorption, mean duration",bone resorption,2.7 years
Gentamicin,effect of PMMA polymerization process on drug potency,[2],did not adversely impact or alter the therapeutic potential
CN(Cc1cnc2nc(N)nc(N)c2n1)c1ccc(C(=O)N[C@@H](CCC(=O)O)C(=O)O)cc1 [methotrexate],effect of PMMA polymerization process on drug potency,[2],did not adversely impact or alter the therapeutic potential
N.N.[Cl][Pt][Cl] [cisplatin],effect of PMMA polymerization process on drug potency,[2],did not adversely impact or alter the therapeutic potential
